According to patent publication US11161856B2 (H. Lundbeck A/S, priority 2017, dated 2021):

What was measured:
ABHD6 = target: T1, ABHD6 (Mus musculus, UniProt Q8R2Y0); experiment: In vitro competitive activity-based protein profiling, mouse brain proteome (ABHD6); type: biochemical; conditions: mouse brain proteome; concentration not given (μM)
T1 construct: Brain; from tissue; host or cells: mouse brain proteome
T1 sequence (Q8R2Y0 1-336): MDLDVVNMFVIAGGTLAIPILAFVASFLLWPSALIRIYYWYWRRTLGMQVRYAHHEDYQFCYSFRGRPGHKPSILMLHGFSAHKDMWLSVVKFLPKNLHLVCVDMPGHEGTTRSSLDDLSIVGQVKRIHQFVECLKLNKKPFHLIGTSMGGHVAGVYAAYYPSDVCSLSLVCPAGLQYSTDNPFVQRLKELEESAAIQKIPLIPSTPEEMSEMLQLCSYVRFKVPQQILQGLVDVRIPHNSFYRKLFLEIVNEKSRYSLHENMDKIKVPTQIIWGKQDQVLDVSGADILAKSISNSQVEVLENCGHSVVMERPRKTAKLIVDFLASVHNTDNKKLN
Method: [The source words this procedure for another target and reports this target under the same test.] In Vitro Competitive Activity-Based Protein Profiling.
Proteomes (human prefrontal cortex or cell membrane fractions) (50 μL, 1.0 mg/mL total protein concentration) were preincubated with varying concentrations of inhibitors at 37° C. After 30 min, FP-Rh or HT-01 (1.0 μL, 50 μM in DMSO) was added and the mixture was incubated for another 30 min at room temperature. Reactions were quenched with SDS loading buffer (15 μL-4×) and run on SDS-PAGE.

MGLL = target: T2, MGLL (Mus musculus, UniProt O35678); experiment: In vitro competitive activity-based protein profiling, mouse brain proteome (MGLL); type: biochemical; conditions: concentration not given (μM)
T2 construct: Brain; from tissue; host or cells: mouse brain proteome
T2 sequence (O35678 1-303): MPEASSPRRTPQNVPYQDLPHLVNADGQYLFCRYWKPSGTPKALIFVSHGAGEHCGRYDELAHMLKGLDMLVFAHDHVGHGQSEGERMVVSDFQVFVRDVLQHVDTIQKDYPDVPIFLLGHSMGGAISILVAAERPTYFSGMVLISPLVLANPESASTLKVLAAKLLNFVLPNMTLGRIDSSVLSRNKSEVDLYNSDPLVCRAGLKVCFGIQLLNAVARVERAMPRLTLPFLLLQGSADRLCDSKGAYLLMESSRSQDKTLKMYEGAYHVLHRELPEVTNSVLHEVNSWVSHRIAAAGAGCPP

| SMILES | % Inh ABHD6 Brain (Mouse, μM) (ABHD6) | % Inh MGLL Brain (Mouse, μM) (MGLL) |
| --- | --- | --- |
| O=C(OC(C(F)(F)F)C(F)(F)F)N1CCC2(CCN(Cc3ccc(C(F)(F)F)cc3N3CCC(F)CC3)CC2)C1 [Example 192, 1,1,1,3,3,3-Hexafluoropropan-2-yl 8-(2-(4-fluoropiperidin-1-yl)-4-(trifluoromethyl)benzyl)-2,8-diazaspiro[4.5]decane-2-carboxylate] | # (# is ≤25%) | ### (### is ≥75%) |
| CS(=O)(=O)N1CCC2(CCN(c3cc(C(F)(F)F)ccc3CN3CCN(C(=O)OC(C(F)(F)F)C(F)(F)F)CC3)CC2)C1 [Example 185, 1,1,1,3,3,3-Hexafluoropropan-2-yl 4-(2-(2-(methylsulfonyl)-2,8-diazaspiro[4.5]decan-8-yl)-4-(trifluoromethyl)benzyl) piperazine-1-carboxylate] | # (# is ≤25%) | ### (### is ≥75%) |
| O=C(OC(C(F)(F)F)C(F)(F)F)N1CCC2(CCN(Cc3ccc(Cl)cc3N3CCCCC3)CC2)C1 [Example 191, 1,1,1,3,3,3-Hexafluoropropan-2-yl 8-(4-chloro-2-(piperidin-1-yl)benzyl)-2,8-diazaspiro[4.5]decane-2-carboxylate] | # (# is ≤25%) | ### (### is ≥75%) |
| CN1CCCC12CCN(c1cc(Cl)ccc1CN1CCN(C(=O)OC(C(F)(F)F)C(F)(F)F)CC1)CC2 [Example 214, 1,1,1,3,3,3-Hexafluoropropan-2-yl 4-(4-chloro-2-(1-methyl-1,8-diazaspiro[4.5]decan-8-yl)benzyl)piperazine-1-carboxylate] | # (# is ≤25%) | ### (### is ≥75%) |
| CCN1CCN(c2cccc(C(F)(F)F)c2CN2CC3(CCN(C(=O)OC(C(F)(F)F)C(F)(F)F)CC3)C2)CC1 [Example 54, 1,1,1,3,3,3-Hexafluoropropan-2-yl 2-(2-(4-ethylpiperazin-1-yl)-6-(trifluoromethyl)benzyl)-2,7-diazaspiro[3.5]nonane-7-carboxylate] | # (# is ≤25%) | ### (### is ≥75%) |
| CC(=O)N1CCC2(CCN(c3cc(C(F)(F)F)ccc3CN3CCN(C(=O)OC(C(F)(F)F)C(F)(F)F)CC3)CC2)C1 [Example 189, 1,1,1,3,3,3-Hexafluoropropan-2-yl 4-(2-(2-acetyl-2,8-diazaspiro[4.5]decan-8-yl)-4-(trifliioromethyl)benzyl) piperazine-1-carboxylate] | # (# is ≤25%) | ### (### is ≥75%) |
| O=C(OC(C(F)(F)F)C(F)(F)F)N1CCC2(CC1)CN(Cc1ccccc1C(F)(F)F)C2 [Example 95, 1,1,1,3,3,3-Hexafluoropropan-2-yl 2-(2-(trifluoromethyl)benzyl)-2,7-diazaspiro[3.5]nonane-7-carboxylate] | ### (### is ≥75%) | ### (### is ≥75%) |
| O=C(OC(C(F)(F)F)C(F)(F)F)N1CC2(CCN(Cc3ccc(Cl)cc3)CC2)C1 [Example 75, 1,1,1,3,3,3-Hexafluoropropan-2-yl 7-(4-chlorobenzyl)-2,7-diazaspiro[3.5]nonane-2-carboxylate] | ### (### is ≥75%) | ### (### is ≥75%) |
| CN1CC2(CCN(c3cc(C(F)(F)F)ccc3CN3CCN(C(=O)OC(C(F)(F)F)C(F)(F)F)CC3)C2)C1 [Example 179, 1,1,1,3,3,3-Hexafluoropropan-2-yl 4-(2-(2-methyl-2,6-diazaspiro[3,4]octan-6-yl)-4-(trifluoromethyl)benzyl) piperazine-1-carboxylate] | # (# is ≤25%) | ### (### is ≥75%) |
